Results from BigSolDB 2.1.

For `C1CC1N1C2C3N(C4CC4)C1C1N(C4CC4)C(C(N1C1CC1)N3C1CC1)N2C1CC1`, the solubility (mole fraction) (in 1,1,2-trichloroethane, 278.15 K) was 0.00866, the solubility (mole fraction) (in 1,1,2-trichloroethane, 283.15 K) was 0.00991 and the solubility (mole fraction) (in 1,1,2-trichloroethane, 288.15 K) was 0.0113. For the same molecule, the solubility (mole fraction) (in 1,1,2-trichloroethane, 293.15 K) was 0.0127, the solubility (mole fraction) (in 1,1,2-trichloroethane, 298.15 K) was 0.0143 and the solubility (mole fraction) (in 1,1,2-trichloroethane, 303.15 K) was 0.0161. The solubility (mole fraction) (in 1,1,2-trichloroethane, 308.15 K) was 0.0182, the solubility (mole fraction) (in 1,1,2-trichloroethane, 313.15 K) was 0.0206 and the solubility (mole fraction) (in 1,1,2-trichloroethane, 318.15 K) was 0.0234. For the same molecule, the solubility (mole fraction) (in 1,2-dichloroethane, 278.15 K) was 0.00228, the solubility (mole fraction) (in 1,2-dichloroethane, 283.15 K) was 0.00279 and the solubility (mole fraction) (in 1,2-dichloroethane, 288.15 K) was 0.00343. It also gave a solubility (mole fraction) (in 1,2-dichloroethane, 293.15 K) of 0.00421, a solubility (mole fraction) (in 1,2-dichloroethane, 298.15 K) of 0.00513 and a solubility (mole fraction) (in 1,2-dichloroethane, 303.15 K) of 0.00624. The solubility (mole fraction) (in 1,2-dichloroethane, 308.15 K) was 0.00752, the solubility (mole fraction) (in 1,2-dichloroethane, 313.15 K) was 0.00903 and the solubility (mole fraction) (in 1,2-dichloroethane, 318.15 K) was 0.0108. The solubility (mole fraction) (in acetone, 278.15 K) was 0.000269, the solubility (mole fraction) (in acetone, 283.15 K) was 0.000333 and the solubility (mole fraction) (in acetone, 288.15 K) was 0.000411. For the same molecule, the solubility (mole fraction) (in acetone, 293.15 K) was 0.000503, the solubility (mole fraction) (in acetone, 298.15 K) was 0.000611 and the solubility (mole fraction) (in acetone, 303.15 K) was 0.000736. For the same molecule, the solubility (mole fraction) (in acetone, 308.15 K) was 0.000875, the solubility (mole fraction) (in acetone, 313.15 K) was 0.00103 and the solubility (mole fraction) (in acetone, 318.15 K) was 0.0012. It also gave a solubility (mole fraction) (in acetonitrile, 278.15 K) of 5.71e-05, a solubility (mole fraction) (in acetonitrile, 283.15 K) of 6.68e-05 and a solubility (mole fraction) (in acetonitrile, 288.15 K) of 7.76e-05. It also gave a solubility (mole fraction) (in acetonitrile, 293.15 K) of 8.91e-05, a solubility (mole fraction) (in acetonitrile, 298.15 K) of 0.000101 and a solubility (mole fraction) (in acetonitrile, 303.15 K) of 0.000114. It also gave a solubility (mole fraction) (in acetonitrile, 308.15 K) of 0.000128, a solubility (mole fraction) (in acetonitrile, 313.15 K) of 0.000143 and a solubility (mole fraction) (in acetonitrile, 318.15 K) of 0.000159. The solubility (mole fraction) (in chloroform, 278.15 K) was 0.0231, the solubility (mole fraction) (in chloroform, 283.15 K) was 0.0263 and the solubility (mole fraction) (in chloroform, 288.15 K) was 0.0297. It also gave a solubility (mole fraction) (in chloroform, 293.15 K) of 0.0332, a solubility (mole fraction) (in chloroform, 298.15 K) of 0.0367 and a solubility (mole fraction) (in chloroform, 303.15 K) of 0.0405. For the same molecule, the solubility (mole fraction) (in chloroform, 308.15 K) was 0.0444, the solubility (mole fraction) (in cyclohexane, 283.15 K) was 0.00931 and the solubility (mole fraction) (in cyclohexane, 288.15 K) was 0.0111. The solubility (mole fraction) (in cyclohexane, 293.15 K) was 0.0132, the solubility (mole fraction) (in cyclohexane, 298.15 K) was 0.0157 and the solubility (mole fraction) (in cyclohexane, 303.15 K) was 0.0186. For the same molecule, the solubility (mole fraction) (in cyclohexane, 308.15 K) was 0.0218, the solubility (mole fraction) (in cyclohexane, 313.15 K) was 0.0255 and the solubility (mole fraction) (in cyclohexane, 318.15 K) was 0.0297. It also gave a solubility (mole fraction) (in dichloromethane, 278.15 K) of 0.0129, a solubility (mole fraction) (in dichloromethane, 283.15 K) of 0.0147 and a solubility (mole fraction) (in dichloromethane, 288.15 K) of 0.0169. For the same molecule, the solubility (mole fraction) (in dichloromethane, 293.15 K) was 0.0194, the solubility (mole fraction) (in dichloromethane, 298.15 K) was 0.0222 and the solubility (mole fraction) (in dichloromethane, 303.15 K) was 0.0255. The solubility (mole fraction) (in dichloromethane, 308.15 K) was 0.0291, the solubility (mole fraction) (in ethanol, 278.15 K) was 0.000225 and the solubility (mole fraction) (in ethanol, 283.15 K) was 0.000283. The solubility (mole fraction) (in ethanol, 288.15 K) was 0.00036, the solubility (mole fraction) (in ethanol, 293.15 K) was 0.000452 and the solubility (mole fraction) (in ethanol, 298.15 K) was 0.000557. It also gave a solubility (mole fraction) (in ethanol, 303.15 K) of 0.000675, a solubility (mole fraction) (in ethanol, 308.15 K) of 0.000805 and a solubility (mole fraction) (in ethanol, 313.15 K) of 0.000951. For the same molecule, the solubility (mole fraction) (in ethanol, 318.15 K) was 0.00111, the solubility (mole fraction) (in ethyl acetate, 278.15 K) was 0.00121 and the solubility (mole fraction) (in ethyl acetate, 283.15 K) was 0.0014. For the same molecule, the solubility (mole fraction) (in ethyl acetate, 288.15 K) was 0.00168, the solubility (mole fraction) (in ethyl acetate, 293.15 K) was 0.00204 and the solubility (mole fraction) (in ethyl acetate, 298.15 K) was 0.00249. The solubility (mole fraction) (in ethyl acetate, 303.15 K) was 0.00305, the solubility (mole fraction) (in ethyl acetate, 308.15 K) was 0.00373 and the solubility (mole fraction) (in ethyl acetate, 313.15 K) was 0.00455. For the same molecule, the solubility (mole fraction) (in ethyl acetate, 318.15 K) was 0.00552, the solubility (mole fraction) (in methanol, 278.15 K) was 4.66e-05 and the solubility (mole fraction) (in methanol, 283.15 K) was 7.71e-05. For the same molecule, the solubility (mole fraction) (in methanol, 288.15 K) was 0.00011, the solubility (mole fraction) (in methanol, 293.15 K) was 0.000144 and the solubility (mole fraction) (in methanol, 298.15 K) was 0.00018. The solubility (mole fraction) (in methanol, 303.15 K) was 0.000219, the solubility (mole fraction) (in methanol, 308.15 K) was 0.000259 and the solubility (mole fraction) (in methanol, 313.15 K) was 0.0003. For the same molecule, the solubility (mole fraction) (in methanol, 318.15 K) was 0.000341, the solubility (mole fraction) (in n-hexane, 278.15 K) was 0.00406 and the solubility (mole fraction) (in n-hexane, 283.15 K) was 0.00447. It also gave a solubility (mole fraction) (in n-hexane, 288.15 K) of 0.00507, a solubility (mole fraction) (in n-hexane, 293.15 K) of 0.00588 and a solubility (mole fraction) (in n-hexane, 298.15 K) of 0.00692. For the same molecule, the solubility (mole fraction) (in n-hexane, 303.15 K) was 0.00819, the solubility (mole fraction) (in n-hexane, 308.15 K) was 0.00973 and the solubility (mole fraction) (in n-hexane, 313.15 K) was 0.0116. For the same molecule, the solubility (mole fraction) (in n-hexane, 318.15 K) was 0.0138, the solubility (mole fraction) (in tetrachloromethane, 278.15 K) was 0.0269 and the solubility (mole fraction) (in tetrachloromethane, 283.15 K) was 0.0298. For the same molecule, the solubility (mole fraction) (in tetrachloromethane, 288.15 K) was 0.0333, the solubility (mole fraction) (in tetrachloromethane, 293.15 K) was 0.0372 and the solubility (mole fraction) (in tetrachloromethane, 298.15 K) was 0.0415. The solubility (mole fraction) (in tetrachloromethane, 303.15 K) was 0.0461, the solubility (mole fraction) (in tetrachloromethane, 308.15 K) was 0.0511 and the solubility (mole fraction) (in tetrachloromethane, 313.15 K) was 0.0568. The solubility (mole fraction) (in tetrachloromethane, 318.15 K) was 0.0632.
